Key:
[1] = test system: PYR/PYL receptors and the PP2C HAB1; test: Yeast two-hybrid agonist assay (screens and receptor sensitivity); format: cell-based, Arabidopsis; conditions: 5 μM of test chemicals
Experimental: FIG. 1A-FIG. 1B. Novel ABA agonists bind to multiple PYR/PYL. (A) Chemical structure of naturally occurring (+)-ABA, its (−)analog and selected ABA agonists. (B) Yeast two-hybrid agonist assays of PYR/PYL receptor sensitivity to 5 μM of test chemicals. Specific PYR/PYL Receptors and the PP2C HAB1 are expressed as Ga14 BD or AD fusion proteins respectively, as described in the text.
A previously described yeast two-hybrid system was used in high throughput screens (HTS) to identify ABA agonists (see, Peterson F C, et al. (2010) Structural basis for selective activation of ABA receptors. Nature Structural & Molecular Biology 17(9):1109-1111). In this system the agonist promoted receptor-PP2C interaction drives expression of a URA3 or HIS3 reporter gene and rescues uracil or histidine auxotrophy of parental strains (Peterson F C, et al. (2010); Vidal M, Brachmann R K, Fattaey A, Harlow E, & Boeke J D (1996) Reverse two-hybrid and one-hybrid systems to detect dissociation of protein-protein and DNA-protein interactions. Proceedings of the National Academy of Sciences of the United States of America 93(19):10315-10320). […]

ABA-responsive genes = test: ATH1 microarray analysis; format: in vivo, Arabidopsis; conditions: wild-type seedlings; 25 μM
Experimental: FIG. 9A-FIG. 9D. LC66C6 induces numerous ABA-responsive genes. […] Ten-day old seedlings were treated with carrier solvent (DMSO) or either 25 μM ABA, pyrabactin or LC66C6 for 8 hours. Total RNA was then prepared labeled and hybridized to ATH1 microarrays. Data plotted are log 2 transformed average expression values for ˜13K probes that were detectable across all experiments. Data shown are averages determined from triplicate biological replicates. (C) and (D) show the expression of a reporter gene in different plant tissues after treatment with vehicle (DMSO), pyrabactin, LC66C6, or (+)-ABA.
Total RNA was isolated using RNAeasy Plant Mini Kit (Qiagen, USA) according to the manufacturer's instructions. cDNA synthesis, labeling and hybridization to the Arabidopsis ATH1 chips (Affymetrix, USA) were performed by the IIGB Core Instrumentation Facility of University of California at Riverside using Affymetrix protocols. Biological triplicate samples were hybridized for DMSO controls, ABA, pyrabactin and quinabactin treatments; compound were applied at 25 μM final concentration and RNA prepared from frozen tissue after 6 hours exposure to compounds or controls. Expression signals for probe sets were calculated and normalized by MASS Statistical Algorithm (Affymetrix, USA). Experimental filtering of array data was performed for the presence of signal in all experiments. […]

Physcomitrella patens = test: Protonema growth of moss; format: in vivo; conditions: 200 μM for 10 days
Experimental: (§1) FIG. 17A-FIG. 17D. The effect of ABA and its agonists in Physcomitrella patens and Chlamydomonas. Protonemal growth images (A) and quantitative analysis (B) of the effects of ABA and agonists on Phsycomitrella patens. Protonema were grown on 200 μM of specific test chemical for 10 days. […] Pyrabactin bleached protonema. (C) The expression of ABA-responsive genes of Physcomitrella patens. Protonema were treated with 200 μM chemical solutions for 3 h. (D) Colony growth of Chlamydomonas on the chemical with salinity stress and osmotic stress. There was no effect of ABA and LC66C6 on the Chlamydomonas growth with and without stresses.

Chlamydomonas = test: Colony growth of Chlamydomonas with and without salinity and osmotic stress; format: in vivo
Experimental: as §1

## CCCN1C(=O)CCc2cc(NS(=O)(=O)Cc3ccc(C)cc3)ccc21 [LC66C6]
[1]
  Agonist activity and receptor selectivity in yeast two-hybrid assay: agonist of multiple PYR/PYL receptors
ABA-responsive genes
  Genome-wide expression pattern compared with ABA: induces a similar set of genes to those induced by ABA
Physcomitrella patens
  Growth of protonema: weak but significant inhibition
Chlamydomonas
  Growth of Chlamydomonas: no effect

## O=S(=O)(NCc1ccccn1)c1ccc(Br)c2ccccc12 [pyrabactin, reference compound]
[1]
  Agonist activity and receptor selectivity in yeast two-hybrid assay: much greater receptor selectivity than ABA or the new agonist LC66C6
ABA-responsive genes
  Genome-wide expression pattern compared with ABA: did not induce an expression pattern similar to that of ABA
Physcomitrella patens
  Growth of protonema: bleached the protonema
Chlamydomonas
  Growth of Chlamydomonas: bleached the Chlamydomonas

Source: patent publication US20160280651A1, “COMPOUNDS THAT INDUCE ABA RESPONSES” (THE REGENTS OF THE UNIVERSITY OF CALIFORNIA, priority 2013, published 2016)
